# In patent publication US8680111B2 (Pfizer Inc., priority 2012, dated 2014):
# Like-named read-outs stand apart in the source and are kept apart here.
# What was measured:
# [1] = cc_pd bond
# [2] = biological target: T1, human recombinant wild-type ALK kinase domain (amino acids 1093-1411) (Homo sapiens, UniProt Q9UM73); assay: Wild-type ALK enzyme assay (microfluidic mobility shift); type: biochemical; settings: ATP 60 μM, competitive inhibition fit
# T1 construct: ALK kinase domain (amino acids 1093-1411); made in house
# Experimental: The reactions were incubated for 1 h at room temperature, stopped by the addition of 0.1 M EDTA, pH 8, and the extent of reactions (˜15-20% conversion with no inhibitor) was determined after electrophoretic separation of the fluorescently labeled peptide substrate and phosphorylated product on an LabChip EZ Reader II (Caliper Life Sciences, Hopkinton, Mass.).
# [3] = biological target: T2, human recombinant L1196M ALK kinase domain (amino acids 1093-1411) (Homo sapiens, UniProt Q9UM73, L1196M); assay: L1196M mutant ALK enzyme assay (microfluidic mobility shift); type: biochemical
# T2 construct: ALK kinase domain (amino acids 1093-1411); made in house
# [4] = 12-membered ring
# [5] = biological target: T3, WT EML4-ALK (NIH-3T3 EML4-ALK wt v1 cells) (Homo sapiens, UniProt Q9UM73); assay: Cellular phospho-ALK (Tyr1604) ELISA assay for WT EML4-ALK; type: cell-based; settings: 1 hour
# T3 construct: expressed in transfected cells; the other entry of the earlier key: EML4 (Q9HC35, Echinoderm microtubule-associated protein-like 4)
# Experimental: (§1) Cellular Phospho-ALK (Tyr1604) ELISA Assay for EML4-ALK:
# (§2) The cells were maintained at 37° C. in a 5% CO2 incubator in DMEM (Invitrogen, Carlsbad, Calif.) medium supplemented with 1% L-glutamine, 1% penicillin and streptomycin, 1 ug/ml puromycin and 10% new born calf serum (NCS) in T-75 flasks.
# (§3) Cells were washed with PBS and re-suspended in DMEM medium supplemented with 0.5% NCS and 1% pen/strep and seeded into 96-well plates at density of 20,000 cells/well/100 μl and incubated in the incubator at 37° C. and 5% CO2. After 20 hours of incubation, 100 μl of assay media (DMEM) in presence of designated PF-compounds concentrations or controls (DMSO) were added into plates and incubated for 1 hour in the incubator. Media was then removed and lysis buffer, containing phosphatase inhibitors and phenylmethanesulfonyl fluoride (PMSF), was added to wells and shaken at 4° C. for 30 minutes to generate protein lysates.
# (§4) A phospho-ALK (Tyr1604) rabbit antibody was coated onto the 96-well microplates. 50 μl of cell lysates were added to the antibody coated plate and incubated at room temperature for 2 hours. Following extensive washing with 0.1% Tween 20 in PBS to remove unbound materials, ALK mouse mAb was added to detect captured phospho-ALK (Tyr1604) and phospho-ALK fusion proteins. Anti-mouse IgG, HRP-linked antibody was then used to recognize the bound detection antibody. Finally, the chemiluminescent reagent was added and incubated for 10 minutes for signal development. The assay plates were read in the Envision plate reader in the luminescent mode. IC50 values were calculated by a concentration-response curve fitting using a four-parameter analytic method.
# [6] = biological target: T4, L1196M EML4-ALK (NIH-3T3 EML4-ALK v1 L1196M cells) (Homo sapiens, UniProt Q9UM73, L1196M); assay: Cellular phospho-ALK (Tyr1604) ELISA assay for L1196M EML4-ALK; type: cell-based
# T4 construct: expressed in transfected cells; the other entry of the earlier key: EML4 (Q9HC35, Echinoderm microtubule-associated protein-like 4)
# Experimental: as §1, §2, §3, §4
# [7] = read-out: WT ALK enzyme assay (Ki)
# [8] = ATP 60 μM, 0.5 nM enzyme, competitive inhibition fit, read-out: L1196M ALK enzyme assay (Ki)
# [9] = read-out: ELISA assay for WT EML4-ALK (IC50)
# [10] = NIH-3T3 EML4-ALK v1 L1196M cells, 1 hour, phospho-ALK (Tyr1604), read-out: ELISA assay for L1196M EML4-ALK (IC50)
"Ki [2, 7]","Ki [3, 8]","IC50 [5, 9]","IC50 [6, 10]",Compound,further results
,,,,C[C@H]1Oc2nc(cnc2N)-c2c(nc3ccc(C#N)cn23)CN(C)C(=O)c2ccc(F)cc21,"ring closure, yield after HPLC (cc_pd bond, 12-membered ring, cataCXium/t-AmOH/KOAc, DMAc, 11.9 mM, 110.0 °C): 12%"
,,,,Cc1cnc2nc3c(n2c1)-c1cnc(N)c(n1)O[C@H](C)c1cc(F)ccc1C(=O)N(C)C3,"ring closure, yield of all isomers ([1]; from Cc1cnc2nc(CN(C)C(=O)c3ccc(F)cc3[C@@H](C)Oc3nc(Br)cnc3N)cn2c1, Pd(OAc)2/cataCXium A, KOAc, tert-amyl alcohol, 30.0 mM, 120.0 °C, 2.0 h): 50%"
,,,,Cc1cnc2nc3cn2c1-c1cnc(N)c(n1)O[C@H](C)c1cc(F)ccc1C(=O)N(C)C3,"ring closure, yield after HPLC (cc_pd bond, Pd(OAc)2/cataCXium A/KOAc, t-amyl alcohol, 30.0 mM, 120.0 °C): 7%"
,,,,Cc1nn(C)c2c1-c1cnc(N)c(n1)OC(C)c1cc(F)ccc1C(=O)N(C)C2 (stereo not shown),"ring closure, yield of all isomers ([1]; from Cc1nn(C)c(CN(C)C(=O)c2ccc(F)cc2C(C)Oc2nc(Br)cnc2N)c1Br, Pd(OAc)2 / di(1-adamantyl)-n-butylphosphine, bis(pinacolato)diboron, CsF, MeOH, 42.4 mM, 100.0 °C, 8.5 h, 2 steps): 6%"
> 3000 nM,500 nM,,,"COc1nccc2c1-c1cnc(N)c(c1)OC(C)c1cc(F)ccc1C(=O)N(C)C2 (stereo not shown) [Example 45, 8-amino-13-fluoro-4-methoxy-11,17-dimethyl-17,18-dihydro-9,5-(metheno)pyrido[3,4-h][2,5,11]benzoxadiazacyclotetradecin-16(11H)-one]","ring closure, yield after HPLC (amide bond, 12-membered ring, CMPI/DIEA, DMA, 10.0 mM, 0.0 °C): 4%"
< 0.07 nM,0.06 nM,0.332 nM,3.03 nM,"C[C@H]1Oc2nc(cnc2N)-c2c(nn(C)c2C#N)CN(C2CC2)C(=O)c2ccc(F)cc21 [Example 54, (10R)-7-amino-16-cyclopropyl-12-fluoro-2,10-dimethyl-15-oxo-10,15,16,17-tetrahydro-2H-8,4-(azeno)pyrazolo[4,3-h][2,5,11]benzoxadiazacyclotetradecine-3-carbonitrile]","ring closure, isolated yield ([4]; cc_pd bond, Pd(OAc)2/cataCXium A/PivOH/KOAc, t-AmOH/water (1 drop), 37.0 mM, […]): 54%"
0.2 nM,0.88 nM,1.83 nM,35 nM,"C[C@H]1Oc2nc(cnc2N)-c2cn(C)nc2CN(C)C(=O)c2ccc(F)cc21 [Example 56, (10R)-7-amino-12-fluoro-2,10,16-trimethyl-16,17-dihydro-2H-8,4-(azeno)pyrazolo[4,3-h][2,5,11]benzoxadiazacyclotetradecin-15(10H)-one]","ring closure, isolated yield ([4]; cc_pd bond, Pd(OAc)2/cataCXium A/KOAc, t-amyl alcohol, 69.8 mM, 120.0 °C): 6%"
,,,,"Cc1cnc2nc3c(n2c1)-c1cnc(N)c(c1)O[C@H](C)c1cc(F)ccc1C(=O)N(C)C3 [Example 57, (5R)-8-amino-3-fluoro-5,14,19-trimethyl-18,19-dihydro-7,11-(metheno)-pyrimido[2′,1′:2,3]imidazo[4,5-h][2,5,11]benzoxadiazacyclotetradecin-20(5H)-one]","ring closure, isolated yield ([4]; amide bond, HATU/DIEA, DMF, 25.1 mM): 52%; Ki ([2]; WT ALK enzyme assay (Ki)): 0.14 nM; Ki ([3]; L1196M ALK enzyme assay (Ki)): 2 nM; IC50 ([5]; ELISA assay for WT EML4-ALK (IC50)): 6.79 nM; IC50 ([6]; ELISA assay for L1196M EML4-ALK (IC50)): 365 nM"
< 0.249 nM,3.73 nM,10.2 nM,169 nM,"C[C@H]1Oc2cc(cnc2N)-c2c(nn(C)c2C#N)CN(C)C(=O)c2ccccc21 [Example 71, (10R)-7-amino-2,10,16-trimethyl-15-oxo-10,15,16,17-tetrahydro-2H-8,4-(metheno)pyrazolo[4,3-h][2,5,11]benzoxadiazacyclotetradecine-3-carbonitrile]","ring closure, yield after HPLC (cc_pd bond, 12-membered ring, B2pin2/Pd(OAc)2/cataCXium A/CsF, MeOH/H2O, 12.7 mM, 100.0 °C): 13%"
5.1 nM,28 nM,347 nM,4270 nM,"C[C@H]1Oc2nc(cnc2N)-c2c(C(N)=O)noc2CN(C)C(=O)c2ccc(F)cc21 [Example 72, (10R)-7-amino-12-fluoro-10,16-dimethyl-15-oxo-10,15,16,17-tetrahydro-8,4-(azeno)[1,2]oxazolo[4,5-h][2,5,11]benzoxadiazacyclotetradecine-3-carboxamide]","ring closure, yield after HPLC (cc_pd bond, 12-membered ring, Pd(OAc)2/cataCXium A/KOAc/PivOH, DMA, […], 120.0 °C): 12%"
0.33 nM,2.4 nM,12.8 nM,169 nM,"C[C@H]1Oc2nc(cnc2N)-c2c(C#N)noc2CN(C)C(=O)c2ccc(F)cc21 [Example 73, (10R)-7-amino-12-fluoro-10,16-dimethyl-15-oxo-10,15,16,17-tetrahydro-8,4-(azeno)[1,2]oxazolo[4,5-h][2,5,11]benzoxadiazacyclotetradecine-3-carbonitrile]","ring closure, yield after HPLC (cc_pd bond, 12-membered ring, Pd(OAc)2/cataCXium A/KOAc/PivOH, DMA, 49.9 mM, 120.0 °C): 21%"
< 1.88 nM,3.9 nM,2.25 nM,52 nM,"CCc1noc2c1-c1cnc(N)c(c1)O[C@H](C)c1cc(F)ccc1C(=O)N(C)C2 [Example 81, (10R)-7-amino-3-ethyl-12-fluoro-10,16-dimethyl-16,17-dihydro-8,4-(metheno)[1,2]oxazolo[4,5-h][2,5,11]benzoxadiazacyclotetradecin-15(10H)-one]","ring closure, yield after HPLC (cc_pd bond, 12-membered ring, Pd(OAc)2/cataCXium A/KOAc/PivOH, DMA, 50.0 mM, […]): 6%"
< 0.2 nM,2.39 nM,11.1 nM,183 nM,"CCc1onc2c1-c1cnc(N)c(c1)O[C@H](C)c1cc(F)ccc1C(=O)N(C)C2 [Example 82, (10R)-7-amino-3-ethyl-12-fluoro-10,16-dimethyl-16,17-dihydro-8,4-(metheno)[1,2]oxazolo[4,3-h][2,5,11]benzoxadiazacyclotetradecin-15(10H)-one]","ring closure, isolated yield ([4]; amide bond, 3 steps): 66%"
47.6 nM,74 nM,,,"C[C@@H]1Oc2nc(cnc2N)-c2cn(C)nc2CN(C)C(=O)c2ccc(F)cc21 [Example 83, (10S)-7-amino-12-fluoro-2,10,16-trimethyl-16,17-dihydro-2H-8,4-(azeno)pyrazolo[4,3-h][2,5,11]benzoxadiazacyclotetradecin-15(10H)-one]","ring closure, isolated yield ([4]; cc_pd bond, Pd(OAc)2/cataCXium A/KOAc, t-amyl alcohol, 120.0 °C, 2 steps): 11%"
0.2 nM,0.39 nM,15.5 nM,191 nM,"C[C@H]1Oc2cc(cnc2N)-c2c(n[nH]c2C#N)CN(C)C(=O)c2ccc(F)cc21 [Example 88, (10R)-7-amino-12-fluoro-10,16-dimethyl-15-oxo-10,15,16,17-tetrahydro-2H-8,4-(metheno)pyrazolo[4,3-h][2,5,11]benzoxadiazacyclotetradecine-3-carbonitrile]","ring closure, yield after HPLC (amide bond, 12-membered ring, HATU/DIEA, DMF, 8.3 mM, 0.0 °C): 12%"
0.339 nM,0.275 nM,6.43 nM,56 nM,"C[C@H]1Oc2nc(cnc2N)-c2c(C#N)n[nH]c2CN(C)C(=O)c2ccc(F)cc21 [Example 89, (10R)-7-amino-12-fluoro-10,16-di methyl-15-oxo-10,15,16,17-tetrahydro-1H-8,4-(azeno)pyrazolo[4,3-h][2,5,11]benzoxadiazacyclotetradecine-3-carbonitrile]","ring closure, isolated yield ([4]; amide bond, HATU/DIEA, DMF, 12.6 mM): 15.8%"
0.079 nM,0.249 nM,1.32 nM,13 nM,"C[C@H]1Oc2nc(cnc2N)-c2c(C#N)nn(CC(F)F)c2CN(C)C(=O)c2ccc(F)cc21 [Example 90, (10R)-7-amino-1-(2,2-difluoroethyl)-12-fluoro-10,16-dimethyl-15-oxo-10,15,16,17-tetrahydro-1H-8,4-(azeno)pyrazolo[4,3-h][2,5,11]benzoxadiazacyclotetradecine-3-carbonitrile]","ring closure, isolated yield ([4]; cc_pd bond, Pd(OAc)2/cataCXium A/KOAc, t-amyl alcohol, 46.7 mM): 11%"
3.5 nM,24.7 nM,,,"C[C@H]1Oc2nc(cnc2N)-c2c(C#N)cccc2CN(C)C(=O)c2ccc(F)cc21 [Example 97, (5R)-8-amino-3-fluoro-5,17-dimethyl-18-oxo-5,16,17,18-tetrahydro-7,11-(azeno)dibenzo[g,l][1,4,10]oxadiazacyclotetradecine-12-carbonitrile]","ring closure, isolated yield ([4]; amide bond, HATU/DIEA, DMF, 6.7 mM): 42%"
0.33 nM,1.41 nM,11.6 nM,83.8 nM,"C[C@H]1Oc2nc(cnc2N)-c2c(nn(C)c2C#N)CNC(=O)c2ccc(F)cc21 [Example 102, (10R)-7-amino-12-fluoro-2,10-dimethyl-15-oxo-10,15,16,17-tetrahydro-2H-8,4-(azeno)pyrazolo[4,3-h][2,5,11]benzoxadiazacyclotetradecine-3-carbonitrile]","ring closure, isolated yield ([4]; amide bond, KOH, MeOH, […], 2 steps): 28%"
